Data taken from US20250019379A1, “NEW CRYSTAL FORM OF COMPOUND, AND PREPARATION METHOD THEREFOR AND USE THEREOF” (E-nitiate Biopharmaceuticals (Hangzhou) Co., Ltd, priority 2021, published 2025).

What was measured:
[1] = Thermodynamic analysis experiment (heating, XRPD); format: physicochemical; details: compared with crystalline form H and crystalline form S
Method: Crystalline form H and crystalline form S were heated to appropriate temperatures under N2 protection, and after cooling to room temperature, the XRPD of the solids was measured.

[2] = Suspension competition experiment; format: physicochemical; details: compared with crystalline form O and crystalline form P; room temperature and 60° C.
Method: Place them at room temperature and 60° C. with magnetic stirring for about 1 hour respectively. […] Solids are used for XRPD testing.

[3] = Dynamic solubility in biological solvents at 37° C.; format: physicochemical
Method: (1) Preparation method of FaSSIF: a. Weigh 42 mg NaOH, 395 mg NaH2PO4·H2O and 619 mg NaCl in a 100 mL beaker, add 90 mL deionized water to dissolve: b. Adjust the pH to […]; Dilute to 100 mL with deionized water to obtain FaSSIF blank solvent: c. Weigh 224 mg of Simulated Intestinal Fluid (hereinafter referred to as SIF powder), add 50 mL of the above FaSSIF blank solvent, and stir until completely dissolved; use Dilute the FaSSIF blank solvent to 100 mL to prepare the solvent FaSSIF; d. Let it stand at room temperature for 2 hours before use.
(2) Preparation method of FeSSIF: a. Weigh 404 mg NaOH, 865 mg glacial acetic acid and 1189 mg NaCl in a 100 mL beaker, add 90 mL deionized water to dissolve: b. Adjust the pH to 5.0 with 1N NaOH or 1N HCl; Dilute to 100 mL with deionized water to obtain FeSSIF blank solvent; c. Weigh 1120 mg SIF powder and add 50 mL of the above FeSSIF blank solvent, stir until dissolved: dilute to 100 mL with FeSSIF blank solvent to obtain FeSSIF solvent d. Let it stand at room temperature before use to ensure a clear solution.
(3) Preparation method of SGF: a. Weigh 200 mg NaCl in a 100 mL beaker, add 90 mL deionized water to dissolve; b. Adjust the pH to 1.6 with 1N HCl; dilute to 100 mL with deionized water to obtain SGF Blank solvent; c. Weigh 6 mg SIF powder and add 50 mL of the above SGF blank solvent, stir until dissolved: dilute to 100 mL with SGF blank solvent to prepare the solvent SGF: d. Let it stand at room temperature before use to ensure a clear solution.
(100 rpm). Take 1.3 mL of the suspension (or clarified solution) respectively at 1, 4, and 24 hours, and centrifuge the suspension for 5 minutes. The solid obtained is used for crystal form detection (XRPD), and the supernatant/clarified solution is filtered for solubility testing and pH test.
Solubility data of the samples were collected using a high-performance liquid chromatograph equipped with an image diode array detector.

[4] = Solid state stability (HPLC purity, XRPD); format: physicochemical; details: for Purity (%): open
Method: Purity testing (via HPLC) and crystal form detection (via XRPD) were performed on starting samples, samples stored for one week, and samples stored for two weeks.

[5] = Hygroscopicity experiment; format: physicochemical; details: Chinese Pharmacopoeia 2020, General Chapter 9103
Method: The hygroscopicity data of the samples were collected using the ADVENTURE series dynamic gas phase adsorption instrument under N2 protection. The sample dosage is about 30 mg.
The hygroscopicity of the above crystalline form was determined with reference to the 2020 edition of the Chinese Pharmacopoeia, General Chapter 9103, Guidelines for Drug Hygroscopicity Tests.

[6] = Influencing factors test (light, high temperature, high humidity); format: physicochemical
Method: The stability of the crystalline form of the present invention under accelerated test conditions was determined. […] Stability testing was conducted under the following conditions, and samples were taken on the 0th day, the 5th day, the 10th day and the 30th day. The content, total impurities, and XRPD patterns of the samples were recorded and compared with the initial data.

[7] = Pharmacokinetic experiment; format: in vivo; details: SD rats, single intragastric administration
Method: 12 SD rats were divided into two groups, with 6 rats in each group, half male and half female, and each was given a single intragastric administration; blood was collected through the fundus venous plexus at designated time points, and the plasma was separated and stored in a −80° C. refrigerator.
For the above plasma sample, after protein precipitation with acetonitrile, the supernatant was diluted with water and 5 μL was transferred to LC-MS/MS for detection.

[8] = High humidity test (25° C., 90 ± 5% RH), 5 d
[9] = High humidity test (25° C., 90 ± 5% RH), 10 d
[10] = High humidity test (25° C., 90 ± 5% RH), 30 d
[11] = High temperature test (60° C.), 5 d
[12] = High temperature test (60° C.), 10 d
[13] = High temperature test (60° C.), 30 d
[14] = Light test (Illuminance 5000 Lx and UV lamp energy 0.9 W/m^2), 5 d
[15] = Light test (Illuminance 5000 Lx and UV lamp energy 0.9 W/m^2), 10 d
[16] = Light test (Illuminance 5000 Lx and UV lamp energy 0.9 W/m^2), 30 d

## C[C@@H](O)c1nc2cnc3[nH]ccc3c2n1N1CCC(CC#N)CC1 [Crystalline form A, (R)-2-(1-(2-(1-hydroxyethyl)imidazo[4,5-d]pyrrolo[2,3-b]pyridine-1(6H)-yl)piperidin-4-yl)acetonitrile]
[1]
  thermodynamic stability: thermodynamically more stable
[2]
  stability in suspension competition: more stable
[3]; FaSSIF, 37° C., 1 h
  Changes in Crystal form: no change
  pH: 6.41
[3]; FaSSIF, 37° C., 4 h
  pH: 6.49
[3]; FaSSIF, 37° C., 24 h
  Changes in Crystal form: no change
  pH: 6.54
[3]; FeSSIF, 37° C., 1 h
  Changes in Crystal form: no change
  pH: 4.92
[3]; FeSSIF, 37° C., 4 h
  pH: 4.95
[3]; FeSSIF, 37° C., 24 h
  Changes in Crystal form: no change
  pH: 4.99
[3]; SGF, 37° C., 1 h
  Changes in Crystal form: no change
  pH: 2.92
[3]; SGF, 37° C., 4 h
  pH: 2.99
[3]; SGF, 37° C., 24 h
  Changes in Crystal form: no change
  pH: 2.95
[3]; SGF/FeSSIF/FeSSIF, 24 hours, 37° C.
  crystal form stability when suspended and stirred: stable
[3]; within 24 hours at 37° C.
  solubility in three solvents (SGF/FaSSIF/FeSSIF), comparison: greater than that of crystalline form Q
[4]
  solid-state stability (conclusion): good solid-state stability
[4]; 1 week, 25° C./60% RH
  Purity (%): 99.64%
[4]; 1 week, 40° C./75% RH
  Purity (%): 99.62%
[4]; 1 week, 60° C.
  Purity (%): 99.62%
[4]; 1 week, 25° C./60% RH, 40° C./75% RH, 60° C.
  Crystal form changes: no change
[4]; 2 week, 25° C./60% RH
  Purity (%): 99.60%
[4]; 2 week, 40° C./75% RH
  Purity (%): 99.60%
[4]; 2 week, 60° C.
  Purity (%): 99.66%
[4]; 2 week, 25° C./60% RH, 40° C./75% RH, 60° C.
  Crystal form changes: no change
[4]; after one week and two weeks of storage under the selected conditions
  change in the crystalline form (XRPD): no change
[4]; after one week and two weeks under the selected conditions
  change in purity: no significant change
[4]; starting sample
  Starting sample Purity (%): 99.59%
[5]
  hygroscopicity class: no or almost no hygroscopicity
  weight gain (hygroscopicity): 0.05%
[6]; 0 d
  Content (%): 99.1%
  Total impurity: 0.325%
[6]; 5000Lx light, 60° C., 90% RH±5% RH, 0, 5, 10, 30 days
  stability under accelerated test conditions (content, total impurities, XRPD): better stability
[6]; [8]
  Content (%): 100.1%
  Total impurity: 0.32%
[6]; [9]
  Content (%): 100.1%
  Total impurity: 0.31%
[6]; [10]
  Content (%): 100.1%
  Total impurity: 0.32%
[6]; [11]
  Content (%): 100.2%
  Total impurity: 0.34%
[6]; [12]
  Content (%): 100.4%
  Total impurity: 0.33%
[6]; [13]
  Content (%): 100.3%
  Total impurity: 0.35%
[6]; [14]
  Content (%): 99.5%
  Total impurity: 0.34%
[6]; [15]
  Content (%): 98.9%
  Total impurity: 0.36%
[6]; [16]
  Content (%): 99.4%
  Total impurity: 0.43%
[7]
  bioavailability in the body: high bioavailability
